# Laboratory results published in patent publication US20060167115A1, “Compositions for the preservation of timber” (priority 2003, published 2006).
# Where “and” joins values, the source holds several entries; their conditions need not be identical. Equal values may be shown once. Entries after “also recorded” stand apart in the source; their conditions may differ.
# Columns and labels:
# wood decay = test: Wood decay field stake test (modified AWPA E7-01), ground contact; conditions: TBBA added to ethanol, over all concentrations; groups of 10 stakes; seven months in ground
# Description: The preservative value of TBBA in terms of preventing wood decay was examined by ground contact exposure of TBBA treated stakes at a test plot in Gainesville, Fla. The test detail was essentially based on the “STANDARD METHOD OF EVALUATING WOOD PRESERVATIVES BY FIELD TESTS WITH STAKES”, Standard E7-01, promulgated by the American Wood Preservers Association (AWPA).
# All the test stakes were of southern pine sapwood and were vacuum impregnated with TBBA. The TBBA was dissolved in one of four solutions: ethanol, P9 type A oil, and in two micro-emulsions: • emulsion #1: TBBA 20.81%, Butyl Lactate 31.02%, NP-15 22.33% and water 25.83% • emulsion #2: TBBA 20.05%, Butyl Lactate 29.88%, NP-15 21.51% and water 28.55%
# Each of the emulsions was diluted so that the corresponding concentration (w/v) of TBBA in all of the solutions was: 1.72%, 3.4%, 5.1%, 6.8% and 8.5%.
# Two groups of control stakes were also installed in the test plot. One group was vacuum impregnated with pure ethanol. The second group was untreated.
# The groups of stakes for each treatment were installed in the test plot, left for seven months, and evaluated according to the procedure set-out in AWPA Standard E7-01. […]
# Poria placenta [1] = test: Biological efficacy test (EN 113), agar medium; type: cell-based
# Source text: (§1) Two fungi were used: Coniophora puteana Brown rot fungus) and Poria placenta (Brown rot fungus). The preservative used was TBBA (waterborne). Seven concentrations of the preservative was used: 3.0%, 2.0%, 1.5%, 1.0%, 0.5%, 0.05%, and 0.0% (w/w), i.e. the carrier solution in the absence of the active material. All wood blocks were of Scots pine sapwood (Pinus sylvestris) with an approximate volume of 18.75 cm^3 (50 mm×25 mm×15 mm) in accordance with European standard EN 113. • Treated test specimens: 2 (fungi)×7 (preservative concentrations)×1 (preservative)×4 (replicates)=56 test blocks • Untreated test specimens (for exposure alongside treated blocks): 2 (fungi)×7 (preservative concentrations)×1 (preservative)×4 (replicates)=56 test blocks • Untreated test specimens (virulence): 2 (fungi)×6 (replicates)=12 test blocks • Treated check test specimens: 4 (replicates)×7 (preservative concentrations)×1 (preservative)=28 test blocks
# (§2) After block impregnation, according to European standard EN 113, and conditioning were completed, all the blocks were sterilized using ionizing radiation according to the conditions set out in EN 113. The incubation period for the test (length of block exposure to the chosen basidiomycete fungi) was 16 weeks.
# (§3) It was noted that some waterlogging of certain test and control specimens had occurred. In keeping with the EN 113 format, weight changes for particular waterlogged specimens, when these are clearly unrepresentative of a group, were not included in the mean figures presented. In addition, weight losses of unrepresentative specimens generally, were not included in the mean figures presented.
# Coniophora puteana [2] = test: Biological efficacy test (EN 113), agar medium; type: cell-based
# Source text: as §1, §2, §3
# Poria placenta [3] = test: Biological screening test (modified EN 113), wood block weight loss; type: cell-based; conditions: 7 weeks exposure
# Description: (§4) The following fungi were employed in this test: Coniophora puteana (Brown rot fungus) and Poria placenta (Brown rot fungus). The following preservative was tested: TBBA (in ethanol carrier). Five concentrations of the preservative were used: 2%, 1%, 0.1%, 0.05% and 0.01% (w/w).
# (§5) All wood blocks employed in the examples to follow were of Scots pine sapwood (Pinus sylvestris) with a volume of 1 cm^3 (10 mm×10 mm×10 mm). Five replicate test specimens were used for each concentration of the preservative. Six virulence control specimens for each fungus were used to establish the wood decay capability of the fungi. Other test blocks were used to establish: the virulence of the test fungi; the absence of a preserving effect of the ethanol carrier; and weight changes of test blocks for reasons other than decay • Treated test specimens: 2 (fungi)×5 (preservative concentrations)×1 (preservative)×5 (replicates)=50 test blocks • Untreated test specimens (for exposure alongside treated blocks): one for each treated block=50 test blocks • Virulence control specimens: 2 (fungi)×6 (replicates)=12 test blocks • Ethanol carrier test specimens: 2 (fungi)×5 (replicates)=10 test blocks • Treated check test specimens: 1 (preservatives)×5 (concentrations)×5 (replicates)=25
# (§6) All timber specimens, where applicable, were treated with preservative (vacuum impregnation) and sterilized (ionizing radiation) prior to test, in accordance with European Standard EN 113. The incubation period for the test (length of block exposure to the chosen basidiomycete fungi) was 48 days or just under 7 weeks.
# (§7) Weight changes for particular waterlogged specimens, when these are clearly unrepresentative of a group, are not included in the mean figures presented.
# (§8) Tables I and II show weight losses (% of initial dry weight) of TBBA treated and untreated control test specimens after 7 weeks exposure to Coniophora puteana and Poria placenta respectively.
# (§9) In the tables, “retention” refers to the quantity of preservative that enters the wood per cubic meter of treated wood. It's value is determined by weighing the block of wood before and after it is treated with preservative, taking the difference between the two weights, and dividing the difference in weight by the volume of the block.
# Coniophora puteana [4] = test: as above; type: cell-based; conditions: 7 weeks exposure
# Description: as §4, §5, §6, §7, §8, §9
# [5] = TBBA 0.01% w/w in ethanol carrier, retention 0.1 kg/m^3
# [6] = TBBA 0.05% w/w in ethanol carrier, retention 0.4 kg/m^3
# [7] = TBBA 0.1% w/w in ethanol carrier, retention 0.7 kg/m^3
smiles,measurement,setting,value
"CC(C)(c1cc(Br)c(O)c(Br)c1)c1cc(Br)c(O)c(Br)c1 [TBBA, Tetrabromobisphenol A]",Instances of Grade No. 10 (count per group),wood decay,8-10
same,Corrected mean loss in mass (%),"Poria placenta [1]; TBBA waterborne 0.05% w/w, retention 0.25 kg/m^3, 16 weeks",30.94 (2.90) %
same,Corrected mean loss in mass (%),"Poria placenta [1]; TBBA waterborne 0.5% w/w, retention 3.79 kg/m^3, 16 weeks",7.94 (19.35) %
same,Corrected mean loss in mass (%),"Poria placenta [1]; TBBA waterborne 1.0% w/w, retention 7.71 kg/m^3, 16 weeks",6.17 (14.50) %
same,Corrected mean loss in mass (%),"Poria placenta [1]; TBBA waterborne 1.5% w/w, retention 11.81 kg/m^3, 16 weeks",−2.19 (070) %
same,Corrected mean loss in mass (%),"Poria placenta [1]; TBBA waterborne 2.0% w/w, retention 12.84 kg/m^3, 16 weeks",−6.21 (0.44) %
same,Corrected mean loss in mass (%),"Poria placenta [1]; TBBA waterborne 3.0% w/w, retention 20.70 kg/m^3, 16 weeks",−1.67 (0.22) %
same,Corrected mean loss in mass (%),"Coniophora puteana [2]; TBBA waterborne 0.05% w/w, retention 0.39 kg/m^3, 16 weeks",46.82 (6.31) %
same,Corrected mean loss in mass (%),"Coniophora puteana [2]; TBBA waterborne 0.5% w/w, retention 3.78 kg/m^3, 16 weeks",34.87 (13.21) %
same,Corrected mean loss in mass (%),"Coniophora puteana [2]; TBBA waterborne 1.0% w/w, retention 7.30 kg/m^3, 16 weeks",37.27 (—) %
same,Corrected mean loss in mass (%),"Coniophora puteana [2]; TBBA waterborne 1.5% w/w, retention 11.12 kg/m^3, 16 weeks",−1.30 (1.16) %
same,Corrected mean loss in mass (%),"Coniophora puteana [2]; TBBA waterborne 2.0% w/w, retention 15.24 kg/m^3, 16 weeks",−6.79 (0.34) %
same,Corrected mean loss in mass (%),"Coniophora puteana [2]; TBBA waterborne 3.0% w/w, retention 23.65 kg/m^3, 16 weeks",−1.06 (0.69) %
same,Corrected mean loss in mass (%),Poria placenta [3]; [5],0.88 (0.29) (5) %
same,Corrected mean loss in mass (%),Poria placenta [3]; [6],4.84 (0.32) (5) %
same,Corrected mean loss in mass (%),Poria placenta [3]; [7],26.67% and 26.67(11.04) %
same,Corrected mean loss in mass (%),"Poria placenta [3]; TBBA 1% w/w in ethanol carrier, retention 6.9 kg/m^3",no weight loss; also recorded: No mass loss
same,Corrected mean loss in mass (%),"Poria placenta [3]; TBBA 2% w/w in ethanol carrier, retention 14.2 kg/m^3",no weight loss
same,Corrected mean loss in mass (%),Coniophora puteana [4]; [5],39.71(2.2) (4) %
same,Corrected mean loss in mass (%),Coniophora puteana [4]; [6],40.63 (7.59) (5) %
same,Corrected mean loss in mass (%),Coniophora puteana [4]; [7],24.80 (—) (1) %
same,Corrected mean loss in mass (%),"Coniophora puteana [4]; TBBA 1% w/w in ethanol carrier, retention 6.7 kg/m^3",2.39% and 2.39 (1.56) (5) %
same,Corrected mean loss in mass (%),"Coniophora puteana [4]; TBBA 2% w/w in ethanol carrier, retention 14.1 kg/m^3",no weight loss; also recorded: No mass loss
